Experiment: molar heat capacity at constant pressure
Details: Crystal, Small (less than 1 g) adiabatic calorimetry

C[N+](C)(C)C[C@H](O)CC(=O)[O-] [(R)-3-hydroxy-4-(trimethylammonio)butanoate]
Details | molar heat capacity at constant pressure [J/K/mol]
5 K, 101.33 kPa | 0.29
6.08 K, 100 kPa | 0.53
6.27 K, 100 kPa | 0.571
6.41 K, 100 kPa | 0.622
6.56 K, 100 kPa | 0.669
6.69 K, 100 kPa | 0.727
6.83 K, 100 kPa | 0.774
6.95 K, 100 kPa | 0.787
7.08 K, 100 kPa | 0.832
7.19 K, 100 kPa | 0.851
7.48 K, 100 kPa | 0.985
7.82 K, 100 kPa | 1.107
8.18 K, 100 kPa | 1.278
8.52 K, 100 kPa | 1.441
8.75 K, 100 kPa | 1.53
9.06 K, 100 kPa | 1.689
9.34 K, 100 kPa | 1.836
9.62 K, 100 kPa | 2.018
9.93 K, 100 kPa | 2.207
10 K, 101.33 kPa | 2.25
10.24 K, 100 kPa | 2.402
10.56 K, 100 kPa | 2.616
10.88 K, 100 kPa | 2.869
11.21 K, 100 kPa | 3.127
11.62 K, 100 kPa | 3.417
11.9 K, 100 kPa | 3.675
12.69 K, 100 kPa | 4.369
13.96 K, 100 kPa | 5.657
15 K, 101.33 kPa | 6.89
15.22 K, 100 kPa | 7.205
16.5 K, 100 kPa | 8.836
17.79 K, 100 kPa | 10.57
19.1 K, 100 kPa | 12.27
20 K, 101.33 kPa | 13.41
20.43 K, 100 kPa | 13.99
22.35 K, 100 kPa | 16.18
24.86 K, 100 kPa | 19.02
25 K, 101.33 kPa | 19.34
27.27 K, 100 kPa | 21.98
29.7 K, 100 kPa | 24.73
30 K, 101.33 kPa | 25.01
32.15 K, 100 kPa | 27.39
34.61 K, 100 kPa | 30.12
35 K, 101.33 kPa | 30.61
37.06 K, 100 kPa | 32.92
39.52 K, 100 kPa | 35.77
40 K, 101.33 kPa | 36.27
41.98 K, 100 kPa | 38.6
44.45 K, 100 kPa | 41.3
45 K, 101.33 kPa | 41.94
46.92 K, 100 kPa | 43.9
49.4 K, 100 kPa | 46.7
50 K, 101.33 kPa | 47.51
51.56 K, 100 kPa | 49.36
53.43 K, 100 kPa | 51.37
55.31 K, 100 kPa | 53.34
57.23 K, 100 kPa | 55.32
59.08 K, 100 kPa | 57.13
60 K, 101.33 kPa | 57.97
60.96 K, 100 kPa | 58.68
62.84 K, 100 kPa | 60.64
64.71 K, 100 kPa | 62.32
66.57 K, 100 kPa | 64.28
68.43 K, 100 kPa | 65.98
70 K, 101.33 kPa | 67.35
70.29 K, 100 kPa | 67.73
72.16 K, 100 kPa | 69.2
74.04 K, 100 kPa | 70.9
75.9 K, 100 kPa | 72.29
77.76 K, 100 kPa | 74.17
79.61 K, 100 kPa | 75.69
80 K, 101.33 kPa | 75.9
81.77 K, 100 kPa | 77.54
84.24 K, 100 kPa | 79.31
84.82 K, 100 kPa | 79.43
86.69 K, 100 kPa | 81.13
88.65 K, 100 kPa | 82.96
90 K, 101.33 kPa | 83.98
92.22 K, 100 kPa | 85.77
95.79 K, 100 kPa | 88.51
99.36 K, 100 kPa | 91.34
100 K, 101.33 kPa | 91.81
102.92 K, 100 kPa | 94.28
106.48 K, 100 kPa | 96.97
110 K, 101.33 kPa | 99.54
110.02 K, 100 kPa | 99.66
113.57 K, 100 kPa | 102.4
117.1 K, 100 kPa | 105
120 K, 101.33 kPa | 107.5
120.63 K, 100 kPa | 107.7
124.16 K, 100 kPa | 110.4
127.68 K, 100 kPa | 113
130 K, 101.33 kPa | 114.7
131.19 K, 100 kPa | 115.4
134.7 K, 100 kPa | 117.9
138.2 K, 100 kPa | 120.5
140 K, 101.33 kPa | 121.6
141.66 K, 100 kPa | 122.9
145.14 K, 100 kPa | 125.4
148.61 K, 100 kPa | 127.8
150 K, 101.33 kPa | 128.6
152.07 K, 100 kPa | 130.3
155.53 K, 100 kPa | 132.7
158.97 K, 100 kPa | 135
160 K, 101.33 kPa | 135.8
162.41 K, 100 kPa | 137.4
165.85 K, 100 kPa | 139.7
169.27 K, 100 kPa | 142.1
170 K, 101.33 kPa | 142.8
172.68 K, 100 kPa | 144.4
176.08 K, 100 kPa | 146.7
179.48 K, 100 kPa | 149
180 K, 101.33 kPa | 149.2
182.87 K, 100 kPa | 151.1
186.24 K, 100 kPa | 153.1
189.61 K, 100 kPa | 154.7
190 K, 101.33 kPa | 154.7
192.97 K, 100 kPa | 156.2
196.22 K, 100 kPa | 157.8
199.57 K, 100 kPa | 159.7
200 K, 101.33 kPa | 160.1
202.89 K, 100 kPa | 161.9
203.31 K, 100 kPa | 162.1
206.21 K, 100 kPa | 163.8
206.83 K, 100 kPa | 163.9
209.52 K, 100 kPa | 165.7
210 K, 101.33 kPa | 166
210.24 K, 100 kPa | 166.4
212.83 K, 100 kPa | 167.6
213.66 K, 100 kPa | 168.2
216.13 K, 100 kPa | 169.6
219.43 K, 100 kPa | 171.7
220 K, 101.33 kPa | 172.2
222.71 K, 100 kPa | 173.9
225.97 K, 100 kPa | 176
229.25 K, 100 kPa | 178.3
230 K, 101.33 kPa | 178.6
232.54 K, 100 kPa | 180.4
235.81 K, 100 kPa | 182.5
239.07 K, 100 kPa | 184.6
240 K, 101.33 kPa | 185.1
242.32 K, 100 kPa | 186.7
245.56 K, 100 kPa | 188.8
248.62 K, 100 kPa | 190.6
250 K, 101.33 kPa | 191.6
251.85 K, 100 kPa | 192.6
255.07 K, 100 kPa | 194.8
257.5 K, 100 kPa | 196.2
260 K, 101.33 kPa | 198.2
260.89 K, 100 kPa | 199.2
264.26 K, 100 kPa | 200.6
267.64 K, 100 kPa | 203.5
270 K, 101.33 kPa | 205
271 K, 100 kPa | 205.7
273.15 K, 101.33 kPa | 207.2
274.35 K, 100 kPa | 208.2
277.7 K, 100 kPa | 210.3
280 K, 101.33 kPa | 211.9
281.03 K, 100 kPa | 212.6
284.35 K, 100 kPa | 214.7
287.63 K, 100 kPa | 217.8
290 K, 101.33 kPa | 218.9
290.92 K, 100 kPa | 219.8
294.21 K, 100 kPa | 221
297.46 K, 100 kPa | 224.2
298.15 K, 101.33 kPa | 224.7
300 K, 101.33 kPa | 226
300.21 K, 100 kPa | 225.9
302.94 K, 100 kPa | 227.7
306.14 K, 100 kPa | 230.3
309.33 K, 100 kPa | 232.6
310 K, 101.33 kPa | 233.1
312.5 K, 100 kPa | 234.8
315.65 K, 100 kPa | 237.1
318.79 K, 100 kPa | 239.5
320 K, 101.33 kPa | 240.1
321.91 K, 100 kPa | 241.3
325.01 K, 100 kPa | 243.5
328.09 K, 100 kPa | 245.8
330 K, 101.33 kPa | 247.2
331.16 K, 100 kPa | 248.1
334.21 K, 100 kPa | 250.7
337.21 K, 100 kPa | 251.9
340 K, 101.33 kPa | 254.2
340.22 K, 100 kPa | 254.1
343.21 K, 100 kPa | 256.3
346.17 K, 100 kPa | 258.6
350 K, 101.33 kPa | 261

From the NIST ThermoML archive (doi:10.1016/j.jct.2018.12.006)
